Laboratory results reported in ChEMBL document CHEMBL4616590, “Therapeutic significance of β-glucuronidase activity and its inhibitors: A review” (Eur J Med Chem, 2020).

Experiments:
Beta-glucuronidase [1] = biological target: T1, Beta-glucuronidase (Escherichia coli (strain K12), UniProt P05804); test: Inhibition of Escherichia coli beta-glucuronidase using p-nitrophenyl-beta-D-glucuronide as substrate
[2] = Inhibition of bovine liver beta-glucuronidase using p-nitrophenyl-beta-d-glucuronide as substrate after 30 mins by spectrophotometric analysis; design: species or system Bos taurus
[3] = Inhibition of bovine liver beta-glucuronidase using p-nitrophenyl-beta-D-glucuronide as substrate after 30 mins; design: species or system Bos taurus
[4] = biological target: T2, Beta-glucuronidase (Mus musculus) (UniProt P12265); test: In vivo inhibition of beta-glucuronidase in OF1 mouse at 10 mg/kg, po after 8 days relative to control; assay type: functional, organism-based
T2 sequence (whole entry): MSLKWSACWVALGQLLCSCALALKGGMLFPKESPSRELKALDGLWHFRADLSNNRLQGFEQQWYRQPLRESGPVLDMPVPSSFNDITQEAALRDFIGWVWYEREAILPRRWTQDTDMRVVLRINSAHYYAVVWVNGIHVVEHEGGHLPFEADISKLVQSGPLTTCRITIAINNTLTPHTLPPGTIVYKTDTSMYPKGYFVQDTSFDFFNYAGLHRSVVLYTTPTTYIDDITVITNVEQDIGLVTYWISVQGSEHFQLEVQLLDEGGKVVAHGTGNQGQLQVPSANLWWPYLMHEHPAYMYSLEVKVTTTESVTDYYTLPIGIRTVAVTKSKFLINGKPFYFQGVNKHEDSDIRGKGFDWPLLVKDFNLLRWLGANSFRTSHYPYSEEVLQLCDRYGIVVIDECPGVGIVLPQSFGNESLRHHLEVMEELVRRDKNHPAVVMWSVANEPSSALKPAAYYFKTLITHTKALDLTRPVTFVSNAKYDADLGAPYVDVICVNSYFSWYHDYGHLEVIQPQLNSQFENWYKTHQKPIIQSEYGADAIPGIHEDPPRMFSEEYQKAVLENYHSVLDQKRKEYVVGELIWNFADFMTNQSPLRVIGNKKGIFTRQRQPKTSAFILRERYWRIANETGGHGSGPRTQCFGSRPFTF

[5] = biological target: T3, Beta-glucuronidase (Homo sapiens) (UniProt P08236); test: Inhibition of beta-glucuronidase (unknown origin) at 1 mM relative to control
T3 sequence (whole entry): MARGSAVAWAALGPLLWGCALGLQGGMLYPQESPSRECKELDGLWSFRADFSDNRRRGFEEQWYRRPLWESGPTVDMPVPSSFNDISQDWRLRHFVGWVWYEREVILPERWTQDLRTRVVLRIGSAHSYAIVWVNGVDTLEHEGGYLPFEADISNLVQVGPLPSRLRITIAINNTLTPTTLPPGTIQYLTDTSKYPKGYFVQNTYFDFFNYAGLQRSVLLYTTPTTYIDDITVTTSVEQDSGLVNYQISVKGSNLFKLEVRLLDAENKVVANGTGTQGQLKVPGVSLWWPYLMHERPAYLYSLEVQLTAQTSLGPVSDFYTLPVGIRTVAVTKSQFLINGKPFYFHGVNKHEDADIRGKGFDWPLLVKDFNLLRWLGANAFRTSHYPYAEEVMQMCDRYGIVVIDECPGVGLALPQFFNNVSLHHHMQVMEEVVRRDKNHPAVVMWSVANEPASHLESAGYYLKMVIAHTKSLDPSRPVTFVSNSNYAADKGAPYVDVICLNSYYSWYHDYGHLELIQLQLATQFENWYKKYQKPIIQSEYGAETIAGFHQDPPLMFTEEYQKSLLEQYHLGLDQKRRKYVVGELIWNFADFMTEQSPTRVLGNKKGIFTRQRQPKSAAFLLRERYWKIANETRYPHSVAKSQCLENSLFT

[6] = Selectivity index, ratio of IC50 for beta-glucuronidase (unknown origin) to IC50 for Escherichia coli beta-glucuronidase
[7] = biological target: T3, Beta-glucuronidase (Homo sapiens); details: 10 mg/ml
Beta-glucuronidase [8] = biological target: T1, Beta-glucuronidase; test: Inhibition of Escherichia coli beta-glucuronidase
[9] = biological target: Beta-glucuronidase (Escherichia coli (strain K12)) (UniProt P05804); test: Inhibition of Escherichia coli beta-glucuronidase at 1 mM relative to control
Beta-glucuronidase [10] = biological target: T4, Beta-glucuronidase (Homo sapiens, UniProt P08236); test: Inhibition of beta-glucuronidase (unknown origin) using p-nitrophenyl-beta-d-glucuronide as substrate after 30 mins
T4 sequence (P08236 whole entry): T3 sequence (whole entry)

Beta-glucuronidase [11] = biological target: T5, Beta-glucuronidase (Mus musculus, UniProt P12265); test: In-vivo inhibition of beta-glucuronidase in BALB/CJ mouse at 10 ug administered as twice daily; assay type: functional
T5 sequence (P12265 whole entry): T2 sequence (whole entry)

[12] = Half life in BALB/CJ mouse at 10 ug administered as twice daily; assay type: ADME; details: in vivo
[13] = Inhibition of Escherichia coli K-12 beta-glucuronidase using PNPG as substrate preincubated for 5 mins followed by substrate addition measured after 30 mins
[14] = biological target: T2, Beta-glucuronidase (Mus musculus); test: In-vivo inhibition of ICR mouse beta-glucuronidase at 20 mg/kg, sc after 10 weeks relative to DMH alone; assay type: functional, organism-based
[15] = biological target: T2, Beta-glucuronidase (Mus musculus); test: In-vivo inhibition of ICR mouse beta-glucuronidase at 60 mg/kg, sc after 10 weeks relative to DMH alone; assay type: functional, organism-based

T1 sequence (P05804 whole entry): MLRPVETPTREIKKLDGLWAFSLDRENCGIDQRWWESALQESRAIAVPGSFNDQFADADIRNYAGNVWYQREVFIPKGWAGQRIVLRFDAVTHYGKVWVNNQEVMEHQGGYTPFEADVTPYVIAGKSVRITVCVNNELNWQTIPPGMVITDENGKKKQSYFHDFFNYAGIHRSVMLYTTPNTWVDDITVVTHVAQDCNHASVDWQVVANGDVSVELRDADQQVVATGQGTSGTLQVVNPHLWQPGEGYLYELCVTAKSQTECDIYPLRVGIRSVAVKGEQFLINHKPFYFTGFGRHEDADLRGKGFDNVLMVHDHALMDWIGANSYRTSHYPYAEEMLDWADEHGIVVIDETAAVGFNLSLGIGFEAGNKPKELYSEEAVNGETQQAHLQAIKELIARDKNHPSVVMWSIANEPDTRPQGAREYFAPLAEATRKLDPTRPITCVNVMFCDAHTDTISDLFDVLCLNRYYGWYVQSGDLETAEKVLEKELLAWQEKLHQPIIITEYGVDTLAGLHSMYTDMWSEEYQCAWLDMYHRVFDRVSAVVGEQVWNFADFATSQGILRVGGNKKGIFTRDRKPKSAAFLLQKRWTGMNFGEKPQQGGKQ
Beta-glucuronidase (Escherichia coli (strain K12)), sequence (P05804 whole entry, looked up): as the sequence (P05804 whole entry) above

## CC1(C)CCC2(C(=O)O)CC[C@]3(C)C(=CC[C@@H]4[C@@]5(C)[C@H](O)C[C@H](O)[C@@](C)(CO)[C@@H]5CC[C@]43C)[C@@H]2C1 (stereo partly specified)
Beta-glucuronidase [1]
  IC50: 63 µM

## Oc1ccccc1-c1nc2cc(Cl)cc(Cl)c2[nH]1
[2]
  IC50: 4.48 µM
[3]
  IC50: 4.48 µM

## C[C@]12C=CC(=O)C=C1CC[C@H]1[C@@H]3C[C@@H](O)[C@](O)(C(=O)CO)[C@@]3(C)C[C@H](O)[C@@]12F
[4]
  inhibition: 94.1%

## COc1ccc(C[C@@H]2CCC[C@@H]3[C@H](O)[C@@H](O)[C@H](CO)N23)cc1
[5]
  inhibition: < 50%
[6]
  Ratio IC50: 7

## O=C(O)c1ccccc1O
[5]
  inhibition: 82%
[7]
  inhibition: 92.9%

## CC(=O)N[C@H]1[C@@H](O)[C@H](O)[C@H](CO)N[C@@H]1Cc1ccccc1
Beta-glucuronidase [8]
  IC50: 90.7 µM
[9]
  inhibition: 37.2%

## CC(=O)c1ccc(Nc2cc(C)nc3ccccc23)cc1
Beta-glucuronidase [10]
  IC50: 4 µM

## CCOc1ccc(NC(=S)N(CCO)Cc2cc3cc(C)cc(C)c3[nH]c2=O)cc1
Beta-glucuronidase [11]
  IC50: 0.164 µM
[12]
  half-life: < 1 h

## O=c1cc(-c2ccc(O)c(O)c2)oc2cc(O)cc(O)c12 [LUTEOLIN]
[13]
  IC50: 8.68 µM
[14]
  inhibition: 14.9%
[15]
  inhibition: 21.3%
